Data as given in article PMC3618669 (Journal of molecular recognition : JMR, 2013).
One block for each molecule: values may come before it.

Legend:
[1] = biological target: bovine serum albumin (BSA) (Bos taurus, UniProt P02769); assay: spectrophotometric metachromatic shift titration; assay type: binding
CD40L (CD154) = biological target: T1, CD40L (CD154) (Homo sapiens, UniProt P29965); assay: spectrophotometric metachromatic shift titration; assay type: binding
T1 sequence (P29965 108-261): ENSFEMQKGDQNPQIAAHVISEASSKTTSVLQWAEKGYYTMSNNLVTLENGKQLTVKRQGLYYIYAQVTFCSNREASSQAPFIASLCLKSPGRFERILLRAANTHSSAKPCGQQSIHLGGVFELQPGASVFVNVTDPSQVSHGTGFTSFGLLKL

SEC = biological target: the molecule itself; assay: SEC

Chain of bovine serum albumin (BSA) (P02769 25-607): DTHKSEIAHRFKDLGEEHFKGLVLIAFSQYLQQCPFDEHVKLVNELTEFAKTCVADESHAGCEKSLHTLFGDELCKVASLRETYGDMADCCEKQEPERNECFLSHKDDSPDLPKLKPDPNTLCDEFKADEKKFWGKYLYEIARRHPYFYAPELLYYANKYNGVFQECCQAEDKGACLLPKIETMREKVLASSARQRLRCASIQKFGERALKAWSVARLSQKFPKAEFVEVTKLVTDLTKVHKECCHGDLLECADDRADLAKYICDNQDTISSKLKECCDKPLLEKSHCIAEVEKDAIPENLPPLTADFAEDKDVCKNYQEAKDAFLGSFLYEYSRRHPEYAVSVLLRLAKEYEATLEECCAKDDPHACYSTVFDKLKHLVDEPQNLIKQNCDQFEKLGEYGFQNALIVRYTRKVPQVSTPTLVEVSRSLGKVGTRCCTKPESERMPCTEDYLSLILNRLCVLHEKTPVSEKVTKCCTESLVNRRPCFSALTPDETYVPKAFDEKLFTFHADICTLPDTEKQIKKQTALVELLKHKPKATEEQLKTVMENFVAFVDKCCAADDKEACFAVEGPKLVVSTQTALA

Kd [1]: 14 µM
Kd (CD40L (CD154)): 20 µM
Molecule: O=C1OC2(c3ccccc31)c1cc(I)c(O)c(I)c1Oc1c2cc(I)c(O)c1I [ErB, erythrosine B]

B1: recombinant human histidine-tagged extracellular CD40L (ligand, UniProt P29965 108-261, looked up)
chain: T1 sequence (P29965 108-261)
stoichiometry N (SEC): 3
